Experimental findings from PubChem BioAssay AID1963431 (Molecular Pharmacology Branch, DTP, NCI, 2024) are described below.

This assay has as its system Rh18 complex spheroid viability, percent test/control. The experiment in a line: Anticancer human tumor Rh18 cell line growth inhibition [Asc].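 On all read-outs here: spheroids exposed to compound for 7 days.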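 On viability, T/C: 100% = DMSO vehicle control wells.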 To be noted: for viability, T/C: stronger effect = lower value. The method in brief:
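Stromal components (HUVEC and hMSC) are co-assembled with the cancer cells into multicellular spheroids. Drugs are then added singly or paired, at concentrations falling by half-log increments from a clinically achievable maximum, capped at 10 microM without known Cmax.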

Setting [1] is: curve of first compound, second compound 0.03 µM.
Setting [2] is: curve of first compound, second compound 0.0949 µM.
Where [3] appears, read: curve of first compound, second compound 0.3 µM.
Setting [4] is: curve of first compound, second compound 0.949 µM.
The mark [5] stands for this setting: curve of first compound, second compound 3 µM.
[6] abbreviates: second compound 0.03 µM, first compound 0.00316 µM.
Setting [7] is: second compound 0.03 µM, first compound 0.01 µM.
[8] abbreviates: second compound 0.03 µM, first compound 0.0316 µM.
Where [9] appears, read: second compound 0.03 µM, first compound 0.1 µM.
Where [10] appears, read: second compound 0.03 µM, first compound 0.316 µM.
[11] abbreviates: second compound 0.03 µM, first compound 1 µM.
The mark [12] stands for this setting: second compound 0.0949 µM, first compound 0.00316 µM.
[13] abbreviates: second compound 0.0949 µM, first compound 0.01 µM.
[14] abbreviates: second compound 0.0949 µM, first compound 0.0316 µM.
Setting [15] is: second compound 0.0949 µM, first compound 0.1 µM.
Setting [16] is: second compound 0.0949 µM, first compound 0.316 µM.
[17] abbreviates: second compound 0.0949 µM, first compound 1 µM.
Setting [18] is: second compound 0.3 µM, first compound 0.00316 µM.
The mark [19] stands for this setting: second compound 0.3 µM, first compound 0.01 µM.
The mark [20] stands for this setting: second compound 0.3 µM, first compound 0.0316 µM.
Setting [21] is: second compound 0.3 µM, first compound 0.1 µM.
The mark [22] stands for this setting: second compound 0.3 µM, first compound 0.316 µM.
The mark [23] stands for this setting: second compound 0.3 µM, first compound 1 µM.
[24] abbreviates: second compound 0.949 µM, first compound 0.00316 µM.
[25] abbreviates: second compound 0.949 µM, first compound 0.01 µM.
The mark [26] stands for this setting: second compound 0.949 µM, first compound 0.0316 µM.
The mark [27] stands for this setting: second compound 0.949 µM, first compound 0.1 µM.
Setting [28] is: second compound 0.949 µM, first compound 0.316 µM.
The mark [29] stands for this setting: second compound 0.949 µM, first compound 1 µM.
[30] abbreviates: second compound 3 µM, first compound 0.00316 µM.
[31] abbreviates: second compound 3 µM, first compound 0.01 µM.
The mark [32] stands for this setting: second compound 3 µM, first compound 0.0316 µM.
Where [33] appears, read: second compound 3 µM, first compound 0.1 µM.
[34] abbreviates: second compound 3 µM, first compound 0.316 µM.
[35] abbreviates: second compound 3 µM, first compound 1 µM.

Values joined by “and” are separate entries in the source; they are usually repeats but may differ in a detail not shown here. Equal values may be shown once.

On to `CCN1CCN(Cc2ccc(Nc3ncc(F)c(-c4cc(F)c5nc(C)n(C(C)C)c5c4)n3)nc2)CC1` + CCN1C(C(=O)NC23CCC(C(=O)O)(CC2)CC3)C(c2cccc(Cl)c2F)C2(C(=O)Nc3cc(Cl)ccc32)C12CCCCC2, for which the half-maximal inhibitory concentration (IC50) (usually the concentration needed to halve the response being measured) is under 3.16 nM under setting [1]; under 3.16 nM under setting [2]; under 3.16 nM under setting [3]; under 3.16 nM under setting [4]; under 3.16 nM under setting [5]. Also, the viability, T/C (in general, the ratio of treated to control) was 42.9% under setting [6]; 39.7% under setting [7]; 41.4% under setting [8]; 38.6% under setting [9]; 46.5% under setting [10]; 56.1% under setting [11]. In addition, the viability, T/C reads like this: under setting [12], 25.2%; under setting [13], 24.9%; under setting [14], 26.3%; under setting [15], 29.5%; under setting [16], 34.6%; under setting [17], 56.7%. The viability, T/C by setting is: under setting [18], 11.7%; under setting [19], 12.9%; under setting [20], 14%; under setting [21], 14.4%; under setting [22], 14.2%; under setting [23], 19.8%. Besides, the viability, T/C by setting is: under setting [24], 9.3%; under setting [25], 8.54%; under setting [26], 10.2%; under setting [27], 11.4%; under setting [28], 10.6%; under setting [29], 14.6%. Also, the viability, T/C is, setting by setting: under setting [30], 8.98%; under setting [31], 7.11%; under setting [32], 8.3%; under setting [33], 7.8%; under setting [34], 8.59%; under setting [35], 13.3%.
For `O=C(c1ccc(F)c(F)c1Nc1ccc(I)cc1F)N1CC(O)([C@@H]2CCCCN2)C1` + CCN1C(C(=O)NC23CCC(C(=O)O)(CC2)CC3)C(c2cccc(Cl)c2F)C2(C(=O)Nc3cc(Cl)ccc32)C12CCCCC2, the half-maximal inhibitory concentration (IC50) reads like this: under setting [1], under 3.16 nM; under setting [2], under 3.16 nM; under setting [3], under 3.16 nM; under setting [4], under 3.16 nM; under setting [5], under 3.16 nM. Further, the viability, T/C is, setting by setting: under setting [6], 35.4%; under setting [7], 36.8%; under setting [8], 31.1%; under setting [9], 33.5%; under setting [10], 23.8%; under setting [11], 6.29%. Besides, the viability, T/C reads like this: under setting [12], 22.7%; under setting [13], 20.1%; under setting [14], 20.1%; under setting [15], 13.9%; under setting [16], 7.94%; under setting [17], 1.48%. Moreover, the viability, T/C runs as follows: under setting [18], 13%; under setting [19], 11.5%; under setting [20], 10.7%; under setting [21], 8.42%; under setting [22], 3.11%; under setting [23], 1.29%. The viability, T/C was 9.01% under setting [24]; 11.2% under setting [25]; 9.23% under setting [26]; 5.03% under setting [27]; 0.89% under setting [28]; 0.92% under setting [29]. Further, the viability, T/C runs as follows: under setting [30], 8.3%; under setting [31], 11.4%; under setting [32], 10.8%; under setting [33], 2.33%; under setting [34], 0.83%; under setting [35], 1.01%.
As for `Cc1nc(N2CCC3(CC2)COC(C)C3N)c(CO)nc1Sc1ccnc(N)c1Cl` (configuration not stated), the viability, T/C was 73.9% and 66.6% and 93.2% (compound 0.00949 µM); 59.7% and 84% and 54% (compound 0.03 µM); 42.7% and 34.4% and 43% (compound 0.0949 µM); 35.3% and 19.2% and 23.9% (compound 0.3 µM); 25.5% and 25.6% and 19.7% (compound 0.949 µM); 13.4% and 15.9% and 15.6% (compound 3 µM). In addition, the IC50 (curve of compound) was 65.4 nM and 61.2 nM and 47.5 nM.
Take `NC1CCC(NC2CC2c2ccccc2)CC1` (configuration not stated) + CNC(C)C(=O)NC1CN(S(=O)(=O)c2cccc(S(=O)(=O)N3CCC4CCC(C(=O)NC(c5ccccc5)c5ccccc5)N4C(=O)C(NC(=O)C(C)NC)C3)c2)CCC2CCC(C(=O)NC(c3ccccc3)c3ccccc3)N2C1=O: the IC50 is over 100 nM (curve of first compound, second compound 0.01 µM); over 100 nM (curve of first compound, second compound 0.0316 µM); under 0.316 nM (curve of first compound, second compound 0.1 µM); over 100 nM (curve of first compound, second compound 0.316 µM); under 0.316 nM (curve of first compound, second compound 1 µM). Also, the viability, T/C was 53.7% (second compound 0.01 µM, first compound 0.000316 µM); 72.9% (second compound 0.01 µM, first compound 0.001 µM); 72.5% (second compound 0.01 µM, first compound 0.00316 µM); 66.5% (second compound 0.01 µM, first compound 0.01 µM); 65.1% (second compound 0.01 µM, first compound 0.0316 µM); 61.5% (second compound 0.01 µM, first compound 0.1 µM). Besides, the viability, T/C by setting is: (second compound 0.0316 µM, first compound 0.000316 µM) 53%; (second compound 0.0316 µM, first compound 0.001 µM) 53.9%; (second compound 0.0316 µM, first compound 0.00316 µM) 53.5%; (second compound 0.0316 µM, first compound 0.01 µM) 61.5%; (second compound 0.0316 µM, first compound 0.0316 µM) 53.1%; (second compound 0.0316 µM, first compound 0.1 µM) 53%. The viability, T/C runs as follows: (second compound 0.1 µM, first compound 0.000316 µM) 48.1%; (second compound 0.1 µM, first compound 0.001 µM) 54.7%; (second compound 0.1 µM, first compound 0.00316 µM) 48.7%; (second compound 0.1 µM, first compound 0.01 µM) 55.5%; (second compound 0.1 µM, first compound 0.0316 µM) 52.3%; (second compound 0.1 µM, first compound 0.1 µM) 56.1%. The viability, T/C was 53.6% (second compound 0.316 µM, first compound 0.000316 µM); 54% (second compound 0.316 µM, first compound 0.001 µM); 52.6% (second compound 0.316 µM, first compound 0.00316 µM); 53.1% (second compound 0.316 µM, first compound 0.01 µM); 53.6% (second compound 0.316 µM, first compound 0.0316 µM); 59.4% (second compound 0.316 µM, first compound 0.1 µM). In addition, the viability, T/C is 43.8% (second compound 1 µM, first compound 0.000316 µM); 50.9% (second compound 1 µM, first compound 0.001 µM); 42.6% (second compound 1 µM, first compound 0.00316 µM); 44.8% (second compound 1 µM, first compound 0.01 µM); 50.2% (second compound 1 µM, first compound 0.0316 µM); 56% (second compound 1 µM, first compound 0.1 µM).
As to `CNC(C)C(=O)NC1CN(S(=O)(=O)c2cccc(S(=O)(=O)N3CCC4CCC(C(=O)NC(c5ccccc5)c5ccccc5)N4C(=O)C(NC(=O)C(C)NC)C3)c2)CCC2CCC(C(=O)NC(c3ccccc3)c3ccccc3)N2C1=O` (configuration not stated), the viability, T/C (compound 0.00316 µM) is 80.3% and 79.9% and 75.9%. In addition, the 50% inhibitory concentration (IC50) is, setting by setting: (compound alone, run of 11/15/2022) over 1000 nM; (curve of compound) 21.6 nM and 33.4 nM.
For `COc1c(OCCCN2CCOCC2)ccc2c3n(c(=NC(=O)c4cnc(N)nc4)nc12)CCN3`, the viability, T/C (compound 0.00316 µM) was 64.9% and 91.3% and 71.5%; the viability, T/C (compound 0.01 µM) was 50.6% and 55% and 53.8%; the viability, T/C (compound 0.0316 µM) is 15.9% and 20.9% and 23.7%; the viability, T/C (compound 0.1 µM) is 6.98% and 6.83% and 7.49%; the viability, T/C (compound 0.316 µM) was 3.1% and 3.42% and 2.99%; the viability, T/C (compound 1 µM) is 1.11% and 1.4% and 0.6%. Besides, for the setting “curve of compound”, the half-maximal inhibitory concentration (IC50) was 10.1 nM and 11.8 nM and 11.5 nM.
